Patent publication US20170173106A1, “Polypeptide Fragments of 168A-T2 and Compositions Comprising Them for Use in Treating Cancer” (GENE SIGNAL INTERNATIONAL SA, priority 2014, published 2017)
Like-named read-outs stand apart in the source and are kept apart here. Ends that are not written are not given here.

Experiments:
HUVECs [1] = assay: Capillaries formation by HUVECs on Matrigel; type: cell-based, human; conditions: 6.5 μM, 13 μM and 33 μM, 18 h
Experimental: Evaluating the formation of capillaries on Matrigel® was performed by angiogenesis test in vitro described in Grant et al (1989 Cell 58, 933-943). Matrigel® was dropped down the wells of the 96 well plates and maintained for 30 min at 37° C. for the Matrigel® solidification. HUVECs cells were then seeded and 50 μL, of peptide added.
Plates were then incubated for 18 hrs at 37° C. cells were then washed with calcein solution (50 μL/well at 8 μM) and incubated for 20 min. HUVECs alive metabolize calcein in a green fluorescent component.
Peptides were added to the culture medium (EGM2-MV) at concentrations 6.5 μM, 13 μM and 33 μM after inoculation of cells. Plates were incubated at 37° C. for 18 h. Fluorescence labeling was achieved by addition of calcein. Pictures were shot with a fluorescence microscope equipped with a camera (zoom ×40).

[2] = system: Matrigel® implants enriched in NCI-H460 cells; assay: Angiogenesis test in vivo (Matrigel implants, hemoglobin); parameters: species or system mice; conditions: 10 mg/kg intraperitoneal daily for 12 days; for color of implants: implants collected day 13
Experimental: Implants of Matrigel® represent an in vivo model of angiogenesis. NCI-H460 cells are used to provide growth factors necessary for blood vessels formation within the Matrigel® matrix. The mixture was then injected sub-cutanously in the Swiis nu/nu mice. Daily treatments with the peptides (1 mg/mL) were performed by injections intraperitoneally. Implants were collected after 12 days.
The dosage of hemoglobin in implants was used as an indicator of the vessels of the implant. The implants were weighted and crushed.
An in vivo model of angiogenesis as described in Passaniti et al. (1992 Experimental gerontology 27, 559-566) was utilized to evaluate the effect of P3 and P4. Briefly, cancer cells were incorporated into Matrigel®, cancer cells provide growth and angiogenic factors necessary for blood vessel formation. The mixture was injected immediately under a sub-cutaneous form of the mice flanks. The day following the inoculation, 20 mice (Swiss nu-nu) were randomized in 4 groups containing 5 mice each and the treatments started as follows: mice of group 1 were treated by 200 μL/injection/day of solvent alone for 12 successive days; mice of group 2 were treated by 200 μL/injection of a P1 solution (1 mg/mL) in a solvent/injection/day for 12 successive days; mice of group 3 were treated by 200 μL of a P3 solution (1 mg/mL) in a solvent/injection/day for 12 successive days; mice of group 4 were treated by 200 μL of a P4 solution (1 mg/mL) in a solvent/injection/day for 12 successive days.

CD151 [3] = assay: CD151 in homogenates of Matrigel implants enriched with NCI-H460 (Western blot); type: in vivo, mice; conditions: 10 mg/kg for 12 days
Experimental: (§1) Analysis of the expression of CD151 and CD9P-1 were performed on western blots on homogenates of implants of Matrigel® enriched with NCI-H460. CD151 profile is characterized by 2 bands on western blots; one at 28 kDa corresponds to CD151 and another one at 26 kDa corresponding to a degraded product of CD151.

CD9P-1 [4] = assay: CD9P-1 in homogenates of Matrigel implants enriched with NCI-H460 (Western blot); type: in vivo, mice; conditions: 10 mg/kg for 12 days
Experimental: as §1

CD9P-1 [5] = molecular target: T1, CD9P-1 (Homo sapiens, UniProt Q9P2B2); assay: CD9P-1 in lysates of NCI-H460 xenografts (Western blot); type: in vivo, mice; conditions: 10 mg/kg every other day for 13 days
T1 construct: from tissue; host or cells: homogenates of Matrigel implants with NCI-H460 cells, and NCI-H460 xenografts, from Swiss nu/nu mice
T1 sequence (Q9P2B2 26-879): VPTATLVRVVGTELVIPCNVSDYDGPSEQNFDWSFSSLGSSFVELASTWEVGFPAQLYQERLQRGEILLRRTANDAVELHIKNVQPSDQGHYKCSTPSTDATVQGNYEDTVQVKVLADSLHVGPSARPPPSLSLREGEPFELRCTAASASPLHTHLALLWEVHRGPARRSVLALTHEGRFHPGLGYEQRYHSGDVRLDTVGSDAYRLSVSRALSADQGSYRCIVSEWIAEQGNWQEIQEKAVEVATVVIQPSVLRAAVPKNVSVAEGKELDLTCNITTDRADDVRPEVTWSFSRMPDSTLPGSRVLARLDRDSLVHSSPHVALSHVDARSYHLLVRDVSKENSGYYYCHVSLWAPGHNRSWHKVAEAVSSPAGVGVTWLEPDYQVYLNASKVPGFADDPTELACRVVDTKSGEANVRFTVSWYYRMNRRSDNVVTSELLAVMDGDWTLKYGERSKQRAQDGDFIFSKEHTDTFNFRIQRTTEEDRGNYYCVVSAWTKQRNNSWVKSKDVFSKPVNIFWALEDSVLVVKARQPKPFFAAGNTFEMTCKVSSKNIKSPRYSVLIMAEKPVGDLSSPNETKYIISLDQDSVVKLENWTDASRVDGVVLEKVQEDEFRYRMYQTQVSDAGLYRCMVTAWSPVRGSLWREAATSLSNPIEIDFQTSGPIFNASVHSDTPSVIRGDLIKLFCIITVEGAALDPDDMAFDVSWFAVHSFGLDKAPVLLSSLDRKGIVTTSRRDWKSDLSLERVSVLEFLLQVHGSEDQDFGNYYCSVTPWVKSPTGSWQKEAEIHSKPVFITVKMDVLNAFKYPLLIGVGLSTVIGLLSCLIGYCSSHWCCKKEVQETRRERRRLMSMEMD
Experimental: (§2) In lysates from xenografts NCI-H460 cells from mice treated for 13 days every other day by P3 or P4 (10 mg/kg), a decrease of CD151 level is observed respectively of 73% and 50% compared to mice treated with the solvent (FIGS. 12A and B). No change in CD9P-1 was observed (FIG. 12A).

HUVECs [6] = assay: Cellular proliferation test (MTT) on HUVECs; type: cell-based, human; conditions: 48 h
Experimental: Evaluation of cellular proliferation was performed using 4,5-diMethylThiazol-2-yl)-2,5 diphenylTetrazolium bromide (MTT) test. After 18 hrs of culture, the media was changed by EBM2 supplemented with gentamycine and 5% SVF. Different concentrations of peptides were added under a volume of 10 μL/well. Cells were incubated for 48 hrs at 37° C. MTT was added (50 μL/well) to the cells for 3 hrs.
Cells were grown for 48 h in EGM2-MV and proliferation was quantified by MTT assay.

CD151 [7] = molecular target: T2, CD151 (Homo sapiens, UniProt P48509); assay: CD151 in lysates of NCI-H460 xenografts (Western blot); type: in vivo, mice; conditions: 10 mg/kg every other day for 13 days
T2 construct: from tissue; host or cells: homogenates of Matrigel implants with NCI-H460 cells, and NCI-H460 xenografts, from Swiss nu/nu mice
T2 sequence (P48509 1-253): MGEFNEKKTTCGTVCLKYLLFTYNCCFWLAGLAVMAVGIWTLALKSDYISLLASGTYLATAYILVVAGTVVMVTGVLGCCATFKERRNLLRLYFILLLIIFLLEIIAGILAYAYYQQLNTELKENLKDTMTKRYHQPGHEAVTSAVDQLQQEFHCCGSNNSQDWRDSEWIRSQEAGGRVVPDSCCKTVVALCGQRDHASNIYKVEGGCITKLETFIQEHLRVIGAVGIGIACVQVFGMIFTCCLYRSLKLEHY
Experimental: as §2

NCI-H460 cells = conditions: 13 days; for average tumoral volume: Example 6, n=5
Experimental: (§3) Swiss nu/nu female mice aged 5-6 weeks were anesthetized with xylazine (12 mg/kg) and ketamine (80 mg/kg). Tumor cells (NCI-H460 or UMUC-3) were implanted sub-cutanously in the mice flanks. […] Tumor sizes were measured and tumor volume was calculated. Mice were weighted to detect symptoms of pain.
Evaluating the effect of the peptides on tumor growth in vivo was performed. Cancer cells NCI-H460 were injected by sub-cutaneous administration in the Swiss-nu/nu mice flanks (n=20). 10 days following inoculation of tumor cells, mice were randomized in 2 groups of 5 mice. Mice of different groups were treated as follow: mice of group 1 were treated with solvent (200 μL/injection/48 hrs); mice of group 2 were treated with P3 (200 μL of 1 mg/mL of P3 in the solvent/injection/48 hrs). All the treatments were performed by intraperitoneal injection for 13 successive days.
The inoculation of NCI-H460 cells (tumoral volume of 100 to 150 mm^3), mice (n=35) were randomized in 7 groups comprising 5 mice each. […] All the treatments were performed by intraperitoneal injection for 13 successive days.

[8] = mouse, in vivo
Experimental: as §3
In parallel, to investigate the toxic effect of peptides tested on mice, the mice weights were measured along the treatment.

UMUC-3 cells = assay: Tumor growth test in vivo, UMUC-3 xenograft (no CD9P-1 expression); parameters: species or system mice; conditions: cisplatin 2.5 mg/kg i.p.; 13 days
Experimental: Tumor sizes were measured and tumor volume was calculated. Mice were weighted to detect symptoms of pain.
The effect of P3 was then tested on the tumor growth in an in vivo model of xenograft of UMUC-3.

Calu-6 cells = assay: Tumor volume in vivo, Calu-6 xenograft; parameters: species or system mice; conditions: CDDP alone 5 mg/kg i.p. every other day for 16 days
Experimental: All experiments were reviewed by Genopole's institutional animal care and use committee, and performed in accordance with institutional guidelines for animal care. Female BALB/c nu/nu mice (n=24) were used at 5-6 weeks of age. The animals were housed in laminar air-flow cabinets under pathogen-free conditions with a 14 hrs light/10 hrs dark schedule, and fed autoclaved standard chow and water ad libitum. Calu-6 cells (5×10^6 cells in 200 μl of serum-free RPMI) were subcutaneously injected into the right flank of mice. After engraftment (10 days), tumor volume (TV) was measured (Balsari et al, Eur J Cancer. 2004 May; 40(8):1275-81) and animals were randomized and separated into four groups of six animals each, to be treated by i.p. injection (200 μl per injection) every other day for 16 days (eight injections). Control mice (group 1) received the vehicle (0.9% saline). […] Pegylated peptide 4 (P4-PEG) was dissolved in vehicle at 1 mg/ml and injected at a dose of 10 mg/kg (group 3). In group 4, mice received both CDDP and P4-PEG. Tumor volume and body weight were measured every other day over the treatment period (16 days).

endostatin = assay: Endostatin production by HUVECs (ELISA); type: cell-based, human; conditions: inhibitor of MMPs GM6001 alone; FIG. 16
Experimental: HUVECs were transfected with siRNA using transfecting agent GENJET according to the manufacturer's instructions. After 48 hrs of incubation, supernatants were collected, protein expression tested by western blots and endostatin quantified.
Endostatin levels were quantified by ELISAs on lysates of HUVECs incubated at rising concentrations of P3 or PCT for 48 hrs.
In order to evaluate the role of metalloproteinases (MMPs) in endostatin production, a polyvalent inhibitor of MMPs, GM6001 was used. The concentration of endostatin in supernatants is at 6.2 ng/mg of protein of the lysates/48 hrs. […] GM6001 inhibits endostatin production induced by P3. MMPs might then be implicated in endostatin production induced by P3.
HUVECs were incubated for 48 hrs in an EGM2-MV media with an anti-CD151 antibody (11G5a) or an irrelevant antibody (negative control unable to recognize any protein). Then endostatin levels were measured by ELISA in supernatants.
HUVECs cells were transfected with specific siRNA of CD151 and CD9. Protein expression was analyzed in western blots. In parallel, endostatin levels were measured by ELISA in supernatants. […] Levels of endostatin in supernatant of HUVECs cells transfected with siRNA were measured. […] On the contrary, levels of endostatin increased at 9.4 ng/mg of protein lysates/48 hrs in HUVECs depleted in CD151 (FIG. 18B). CD151 is thus involved in the production of endostatin.

endothelial cells = conditions: results disclosed in WO 2008/138894; cited from earlier work

In the case of IHSKPVFITVKMDVLNA [P4], the “capillary tubes formation (capillaries length and junctions number)” value (HUVECs [1]) is reported as “significant decrease of both capillaries length and junctions number”, the “inhibition of hemoglobin amount in implants compared to group 1 (solvent)” value [2] is reported as 29.2±8.4% and the color of implants [2] is reported as “yellow color with some red points”. The “decrease of the band corresponding to CD151 (28 kDa, normalized to GAPDH, vs solvent)” value (CD151 [3]) was 51%, the CD9P-1 level (CD9P-1 [4]) was “does not change” and the “change in CD9P-1” value (CD9P-1 [5]) was “No change”.

In the case of GNYYCSVTPWVKS [P3], the “inhibition of HUVECs proliferation” value (HUVECs [6]; 66 μM, n=3) is reported as 50%±1.2%, the “decrease of CD151 level compared to mice treated with the solvent” value (CD151 [7]) is reported as 73% and the “inhibition of the tumor growth in vivo” value (NCI-H460 cells; Example 5, P3 200 μL of 1 mg/mL /injection/48 hrs i.p.) is reported as 64.79±4.37%. The “Weight difference between day 1 and day 13” value [8] was 10.2 ± 9%, the “Weighted average of mice after 13 days of the treatment” value [8] was 24.6 ± 0.4 and the “Weight difference between day 1 and day 13” value ([8]; 10 mg/kg) was 6 ± 2%. The “Weighted average of mice after 13 days of the treatment” value ([8]; 10 mg/kg) was 26.2 ± 2.9.

With N.N.[Cl][Pt][Cl] [cisplatin, Cis-diammine platinum II dichloride] the tumors under treatment (UMUC-3 cells) was “reduced”, the tumor volume (Calu-6 cells) was “significant decrease in tumor volume” and the average tumoral volume (NCI-H460 cells; cisplatin 2.5 mg/kg i.p.) was 1017±119.8 mm^3. It also gave an average tumoral volume (NCI-H460 cells; cisplatin alone 5 mg/kg i.p.) of 626±118.5 mm^3.

With VSWFAVHSFGLDKAPVLLSS (Peptide 1) [P1] the “effect on HUVECs proliferation” value (HUVECs [6]) was “No effect” and the color of implants [2] was “red color”.

For CNC(=O)[C@H](Cc1c[nH]c2ccccc12)NC(=O)[C@@H](CC(=O)NO)CC(C)C [GM6001], the “concentration of endostatin in supernatants” value (endostatin) was 4.4 ng/mg of protein of the lysates/48 hrs and the “decrease of endostatin compared to the control” value (endostatin) was “about 30%”.

B1: 168A-T2: fragment of the extracellular domain of protein 168A (CD9P-1) (protein)
chain: MAFDVSWFAVHSFGLDKAPVLLSSLDRKGIVTTSRRDWKSDLSLERVSVLEFLLQVHGSEDQDFGNYYCSVTPWVKSPTGSWQKEAEIHSKPVFITVKMDVLNAFKYP
modifications: peptide 168A-T2
For B1, the “potency relative to the anti-VEGF mAb and/or VEGF receptor (KDR)-based identified peptides” value (endothelial cells) is given as “at least 600 fold”.
